Assay results published in PubChem BioAssay AID1918948 (Molecular Pharmacology Branch, DTP, NCI, 2023).
“And” between values parts separate entries of the source, which are not always exact repeats. Equal entries are not always repeated.

System: K-562 leukemia growth, % test/control
Test: Anticancer human tumor K-562 cell line growth inhibition;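 further: spheroids exposed to compounds for 7 days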;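 on viability, T/C: 100% = DMSO vehicle wells and lower values mean fewer viable cells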
Conditions: spheroids with HUVEC and MSC; for viability, T/C: stronger effect = lower value; for IC50: curve of compound
Source text: Multicellular complex tumor spheroid response to LSD1 Inhibitor Iadademstat in combination with a variety of drugs and investigational agents in selected tumor cell lines
The current study was undertaken to assess response to LSD1 inhibitors in combination with standard-of-care drugs and investigational agents in solid tumor complex spheroid models as well as in the K-562 leukemia. Complex spheroids include a stromal component modeled by human endothelial cells (HUVEC) and fibroblasts modeled by human mesenchymal stem cells (MSCs). The concentration ranges selected for each drug and investigational agent were based upon clinically achievable concentrations if the clinical Cmax of the agent was known.
Compounds. The drugs and investigational agents used in this study are listed on Table 1. All of the agents used, including staurosporine (NSC755774) and gemcitabine (NSC613327), were obtained from the Developmental Therapeutics Program, NCI. FDA-approved anticancer drugs are available from the NCI at http://dtp.nci.nih.gov/branches/dscb/oncology_drugset_explanation.html. Drugs and investigational agents were >95% pure by proton nuclear magnetic resonance (NMR) and liquid chromatography/mass spectrometry (LC/MS). Stock solutions were prepared at 400x in DMSO, stored at -70 degrees C, and diluted in fresh medium prior to their use. The final concentration of DMSO in cell culture wells never exceeded 0.25% (v/v). The FDA-approved anticancer drug set is available from the Developmental Therapeutics Program at https://dtp.cancer.gov/organization/dscb/obtaining/available_plates.htm. All drugs and investigational agents were tested over a range starting from a high concentration at or near the clinical Cmax and decreasing in half-log increments. If the clinical Cmax for an agent had not been determined, the highest concentration tested was 10 microM.
Cell Lines. The patient-derived cancer cell (PDC) lines: 292921-168-R-J2-PDC, K24384-001-R-PDC, and 521955-158-R2-J5-PDC pancreatic carcinomas, 556581-035-R-J1 ovarian carcinoma, 324938-238-R-J1-PDC, 855422-203-R-J1-PDC and 883617-216-R-J1-PDC urothelial bladder carcinomas, 743489-274-T-PDC renal cell carcinoma, 138582-R-J1 Merkel cell tumor, K60290-347-R-J1 and K57222-313-R-J1-PDC glioblastomas, 653999-131-R-J2-PDC, LG0703-F948-PDC, and 349418-098-R-PDC non-small cell lung carcinomas, 885512-296-R-J2-PDC, 171881-019-R-J1-PDC breast carcinomas and 186277-243-T-J2-PDC and 233499-124-R-J2-PDC colon carcinomas were obtained from the NCI Patient-Derived Models Repository (PDMR, https://pdmr.cancer.gov). The established cell lines NCI/ADR-RES (RRID:CVCL_14520 and OVCAR-5 (RRID:CVCL_1628) ovarian carcinomas, 786-O (RRID:CVCL_1051) and A498 (RRID:CVCL_A498) renal cell carcinoma, NCI-H211 (ATCC, cat. CRL-5824; RRID:CVCL_1529), NCI-H196 (ATCC, cat. CRL-5823, RRID:CVCL_1509), SW 1271 (ATCC, cat. CRL-2177, RRID:CVCL_1716) and NCI-H1876 (ATCC, cat. CRL-5902, RRID:CVCL_1503) small cell lung carcinomas, MDA-MB-231 (RRID:CVCL_0062) and MDA-MB-468 (RRID:CVCL_0419)breast carcinomas (10-12). Pooled donor human umbilical vein endothelial cells (HUVEC, Lonza, cat. CC-2519) and human mesenchymal stem cells (hMSC, Lonza, cat. PT-2501) were purchased from Lonza (Walkersville, MD).
Cell Culture. All cells were maintained in an incubator at 37 degrees C and 5% CO2 with 95% humidity. The PDC lines were cultured according to standard operating procedures established by the NCI PDMR (https://pdmr.cancer.gov). Briefly all PDCs were thawed and cultured in Matrigel-coated flasks prepared with a working solution of 1X Ham's F-12 nutrient mix, without supplementation (Invitrogen, Waltham, MA, cat. 11765054), 100 U/mL penicillin-streptomycin (Invitrogen, cat. 15140122), and 2.5% Matrigel (Corning Inc., Corning, NY, cat. 354248) for the first three passages. […]

Compound	IC50	viability, T/C (compound 0.000316 µM)	viability, T/C (compound 0.00316 µM)	viability, T/C (compound 0.01 µM)	viability, T/C (compound 0.0316 µM)	viability, T/C (compound 0.1 µM)	viability, T/C (compound 0.001 µM)	viability, T/C (compound 0.316 µM)	viability, T/C (compound 1 µM)	viability, T/C (compound 3.16 µM)	viability, T/C (compound 10 µM)	viability, T/C (compound 0.00949 µM)	viability, T/C (compound 0.03 µM)	viability, T/C (compound 0.0949 µM)	viability, T/C (compound 0.3 µM)	viability, T/C (compound 0.949 µM)	viability, T/C (compound 3 µM)	viability, T/C (compound 0.000949 µM)	viability, T/C (compound 0.003 µM)
CC1(C)CCC(CN2CCN(c3ccc(C(=O)NS(=O)(=O)c4ccc(NCC5CCOCC5)c([N+](=O)[O-])c4)c(Oc4cnc5[nH]ccc5c4)c3)CC2)=C(c2ccc(Cl)cc2)C1	7.52 µM and 4.73 µM				102% and 101%	103% and 107%		100% and 108%	109% and 117%	117% and 75.7%									
CC1COCCN1c1cc(C2(S(C)(=N)=O)CC2)nc(-c2ccnc3[nH]ccc23)n1 (centres undefined)	0.589 µM and 1.55 µM				91.2% and 107%	89.3% and 102%		74.7% and 91.8%	29.1% and 74.6%	5.34% and 10.9%	2.87% and 2.76%								
CC[C@@]1(O)C(=O)OCc2c1cc1n(c2=O)Cc2cc3c(CN(C)C)c(O)ccc3nc2-1	0.00223 µM and 0.00798 µM	98.4% and 100%	34.6% and 58.8%	32.6% and 50.7%	20.8% and 24.8%	11.2%	71.1% and 99.8%												
CCc1c2c(nc3ccc(O)cc13)-c1cc3c(c(=O)n1C2)COC(=O)[C@]3(O)CC	< 0.000949 µM											5.78% and 4.21%	2.47% and 1.25%	0.78% and 0.75%	0.65% and 0.82%			15% and 13.4%	10.5% and 9.22%
COc1cc(Nc2ncc3c(n2)-c2ccc(Cl)cc2C(c2c(F)cccc2OC)=NC3)ccc1C(=O)O	0.008 µM and < 0.00316 µM		83.3% and 43.7%	41.7% and 44.3%	40% and 40.6%	39.9% and 40.8%		37.6% and 11.2%											

Continued, in another order:

IC50	Compound	viability, T/C (compound 0.000316 µM)	viability, T/C (compound 0.00316 µM)	viability, T/C (compound 0.01 µM)	viability, T/C (compound 0.0316 µM)	viability, T/C (compound 0.1 µM)	viability, T/C (compound 0.001 µM)	viability, T/C (compound 0.316 µM)	viability, T/C (compound 1 µM)	viability, T/C (compound 3.16 µM)	viability, T/C (compound 10 µM)	viability, T/C (compound 0.00949 µM)	viability, T/C (compound 0.03 µM)	viability, T/C (compound 0.0949 µM)	viability, T/C (compound 0.3 µM)	viability, T/C (compound 0.949 µM)	viability, T/C (compound 3 µM)	viability, T/C (compound 0.000949 µM)	viability, T/C (compound 0.003 µM)
0.002 µM and 0.000584 µM	CC(C)CC(NC(=O)C(Cc1ccccc1)NC(=O)c1cnccn1)B(O)O (centres undefined)	98.7% and 102%	18.8% and 1.3%	1.39% and 0.58%	1.89% and 0.51%	3.68% and 0.49%													
0.0174 µM and 0.0148 µM	CC(C)CC(NC(=O)CNC(=O)c1cc(Cl)ccc1Cl)B1OC(=O)CC(CC(=O)O)(C(=O)O)O1 (centres undefined)	103% and 97%	95.6% and 97.4%	74.2% and 68.6%	24.2% and 13.3%	6.61% and 2.45%	97.5% and 95.5%												
> 10 µM	CC(C)c1c(-c2ccccc2)nc2c(C#N)c[nH]n2c1=O				104% and 100%	98.4% and 97%		102% and 101%	99% and 102%	106% and 109%	107% and 108%								
0.0131 µM and < 0.00316 µM	CC1COCCN1c1cc(-c2ccnn2C)c2ccnc(-c3ccn[nH]3)c2n1 (centres undefined)		88.3% and 28.6%	59.4% and 15.3%	19.1% and 3.08%	5.33% and 2.16%		3.07% and 2.39%	2.84% and 2.02%										
> 3 µM and 2.14 µM	CCN(c1cc(-c2ccc(CN3CCOCC3)cc2)cc(C(=O)NCc2c(C)cc(C)[nH]c2=O)c1C)C1CCOCC1											110% and 112%	107% and 112%	105% and 114%	105%	107% and 76.7%	104% and 38.9%		
0.029 µM and 0.0521 µM	COc1cc(C2c3cc4c(cc3C(OC3OC5COC(C)OC5C(O)C3O)C3COC(=O)C23)OCO4)cc(OC)c1O (centres undefined)											89.7% and 84.4%	48.8% and 36.5%	23.6% and 39.6%	41% and 42.6%	34.9% and 9.87%	8.88% and 1.67%		
